Results taken from patent US8183296B2, “Pesticide phenyloxy substituted phenylamidine derivatives” (Bayer Cropscience AG, priority 2005, dated 2012).

Assays:
[1] = logP by HPLC on reversed-phase column (C 18), EEC Directive 79/831 Annex V.A8; format: physicochemical; conditions: C 18, 40° C., 0.1% aqueous formic acid and acetonitrile; for chromatographic logP: reversed-phase HPLC column (C 18), read-out: logPa
Experimental: Temperature: 40° C.; Mobile phases: 0.1% aqueous formic acid and acetonitrile; linear gradient from 10% acetonitrile to 90% acetonitrile.
Calibration was carried out using unbranched alkan-2-ones (comprising 3 to 16 carbon atoms) with known logP values (determination of the logP values by the retention times using linear interpolation between two successive alkanones).

Sphaerotheca fuliginea = assay: In vivo protective test on Sphaerotheca fuliginea (cucumbers); conditions: Podosphaera fuliginea, topical, 168 h, 100 ppm of active ingredient, evaluated 7 days after inoculation, read-out: efficacy
Experimental: In Vivo Protective Test on Sahaerotheca fuliginea (Cucumbers)
(§1) To produce a suitable preparation of active compound, 1 part by weight of active compound is mixed with the stated amounts of solvent and emulsifier, and the concentrate is diluted with water to the desired concentration.
To test for protect activity, young plants are sprayed with the preparation of active compound at the stated rate of application. After the spray coating has dried on, the plants are inoculated with an aqueous spore suspension of Sphaerotheca fuliginea. The plants are then placed in a greenhouse at approximately 23° C. and a relative atmospheric humidity of approximately 70%.
(§2) The test is evaluated 7 days after the inoculation. 0% means an efficacy which corresponds to that of the control, while an efficacy of 100% means that no disease is observed.

[2] = system: Erysiphe graminis f.sp. hordei; assay: In vivo preventive test on Erysiphe graminis (powdery mildew on barley); conditions: Blumeria graminis, topical, 168 h, 1000 ppm of active ingredient, evaluated 7 days after inoculation, read-out: efficacy
Experimental: In Vivo Preventive Test on Erysiphe gramini (Powdery Mildew on Barley)
To produce a suitable preparation of active compound, 1 part by weight of active compound or active compound combination is mixed with the stated amounts of solvent and emulsifier, and the concentrate is diluted with water to the desired concentration.
To test for preventive activity, young plants are sprayed with the preparation of active compound or active compound combination at the stated rate of application.
After the spray coating has dried on, the plants are dusted with spores of Erysiphe graminis f.sp. hordei
The plants are placed in a greenhouse at a temperature of approximately 20° C. and a relative atmospheric humidity of approximately 80% to promote the development of mildew pustules.
as §2

[3] = system: Puccinia recondita f. Sp. tritici; assay: In vivo preventive test on Puccinia recondita f. Sp. tritici (wheat brown rust); conditions: topical, 240 h, 1000 ppm of active ingredient, evaluated 10 days after inoculation, read-out: efficacy
Experimental: In Vivo Preventive Test on Puccinia recondita f. Sp. tritici (Wheat Brown Rust)
as §1
To test for preventive activity, young plants are […]. After the spray coating has dried on, the plants are sprayed with the preparation of active compound at the stated rate of application. The plants remain for 24 hours in an incubation cabinet at 20° C. and a relative atmospheric humidity of 100%.
The plants are placed in a greenhouse at a temperature of approximately 20° C. and a relative atmospheric humidity of approximately 80% to promote the development of rust pustules.
The test is evaluated 10 days after the inoculation. 0% means an efficacy which corresponds to that of the control, while an efficacy of 100% means that no disease is observed.

Alternaria solani = assay: In vivo protective test on Alternaria solani (leaf spot of tomato); conditions: topical, 168 h, 500 ppm of active ingredient, evaluated 7 days after inoculation, read-out: efficacy
Experimental: In Vivo Protective Test on Alternaria solani (Leaf Spot of Tomato)
as §1
To test for protective activity, young plants are sprayed with the preparation of active compound at the stated rate of application. After the spray coating has dried on, the plants are inoculated with an aqueous spore suspension of Alternatia solani. The plants remain for one day in an incubation cabinet at approximately 20° C. and a relative atmospheric humidity of 100%. Then the plants are placed in an incubation cabinet at approximately 20° C. and a relative atmospheric humidity of 96%.
The test is evaluated 7 days after the inoculation. 0% means an efficacy which corresponds to that of the control while an efficacy of 100% means that no disease is observed.

Podosphaera leucotricha = assay: In vivo protective test on Podosphaera leucotricha (apples); conditions: topical, 240 h, 100 ppm of active ingredient, evaluated 10 days after inoculation, read-out: efficacy
Description: In Vivo Protective Test on Podosphaera leucotricha (Apples) [table] […] To test for protective activity, young plants are sprayed with the preparation of active compound at the stated rate of application. After the spray coating has dried on, the plants are inoculated with an aqueous spore suspension of the causal agent of apple mildew (Podosphaera leucotricha).

| Structure (SMILES) | logPa [1] | chromatographic logP [1] | pest or weed control at 1000 ppm [3] [%] | also measured |
| --- | --- | --- | --- | --- |
| Cc1cc(Oc2cc(Cl)c(/N=C/N3CCCCC3C)cc2C)ccc1Cl (racemic) [Example 52] | 2.80 |  |  |  |
| Cc1cc(/N=C/N2CCCCC2C)c(Cl)cc1Oc1ccc(Cl)c(C(C)(C)C)c1 (racemic) [Example 54] | 3.33 |  |  |  |
| Cc1cc(/N=C/N2CCCCC2C)c(Cl)cc1Oc1ccc(Cl)c(C(C)C)c1 (racemic) [Example 62] | 3.07 |  |  |  |
| CCN(C)/C=N/c1cc(C)c(Oc2ccc(Cl)c(C)c2)cc1C [Example 4] |  | 2.31 |  |  |
| CCc1cc(Oc2cc(C)c(/N=C/N(C)CC)cc2C)ccc1Cl [Example 5] |  | 2.56 | ≥ 70 | pest or weed control at 100 ppm (Sphaerotheca fuliginea): ≥ 70%; pest or weed control at 1000 ppm [2]: ≥ 70%; pest or weed control at 500 ppm (Alternaria solani): ≥ 70%; pest or weed control at 100 ppm (Podosphaera leucotricha): ≥ 70% |
| Cc1cc(Oc2ccc(Cl)c(C(C)(C)C)c2)c(C)cc1/N=C/N(C)C1CC1 [Example 7] | 2.21 |  |  |  |
| CCCN(C)/C=N/c1cc(C)c(Oc2ccc(Cl)c(C(C)(C)C)c2)cc1C [Example 8] |  | 3.3 | ≥ 70 | pest or weed control at 100 ppm (Sphaerotheca fuliginea): ≥ 70%; pest or weed control at 1000 ppm [2]: ≥ 70%; pest or weed control at 500 ppm (Alternaria solani): ≥ 70%; pest or weed control at 100 ppm (Podosphaera leucotricha): ≥ 70% |
| CCN(C)/C(S)=N/c1cc(C)c(Oc2ccc(Cl)c(C(C)(C)C)c2)cc1C [Example 10] |  | 5.12 |  | pest or weed control at 100 ppm (Sphaerotheca fuliginea): ≥ 70%; pest or weed control at 1000 ppm [2]: ≥ 70%; pest or weed control at 500 ppm (Alternaria solani): ≥ 70%; pest or weed control at 100 ppm (Podosphaera leucotricha): ≥ 70% |
| CCCN(C)/C=N/c1cc(Cl)c(Oc2ccc(Cl)c(CC)c2)cc1C [Example 11] |  | 2.84 | ≥ 70 | pest or weed control at 100 ppm (Sphaerotheca fuliginea): ≥ 70%; pest or weed control at 1000 ppm [2]: ≥ 70%; pest or weed control at 100 ppm (Podosphaera leucotricha): ≥ 70% |
| CCc1cc(Oc2cc(C)c(/N=C/N(C)C3CC3)cc2Cl)ccc1Cl [Example 12] | 2.89 |  |  |  |
| CCc1cc(Oc2cc(C)c(/N=C/N(C)C3CC3)cc2C)ccc1Cl [Example 15] | 2.71 |  |  |  |
| Cc1cc(Oc2cc(C)c(/N=C/N(C)C(C)C)cc2C)ccc1Cl [Example 16] |  | 2.4 | ≥ 70 | pest or weed control at 1000 ppm [2]: ≥ 70%; pest or weed control at 500 ppm (Alternaria solani): ≥ 70%; pest or weed control at 100 ppm (Podosphaera leucotricha): ≥ 70% |
| Cc1cc(Oc2ccc(Cl)c(C(C)C)c2)c(Cl)cc1/N=C/N(C)C1CC1 [Example 23] | 2.96 |  |  |  |
| Cc1cc(Oc2ccc(Cl)c(C(C)(C)C)c2)c(Cl)cc1/N=C/N(C)C1CC1 [Example 24] | 3.24 |  |  |  |
| CCCN(C)/C=N/c1cc(C)c(Oc2ccc(Cl)c(C(C)C)c2)cc1C [Example 27] |  | 3 | ≥ 70 | pest or weed control at 100 ppm (Sphaerotheca fuliginea): ≥ 70%; pest or weed control at 1000 ppm [2]: ≥ 70%; pest or weed control at 100 ppm (Podosphaera leucotricha): ≥ 70% |
| CCN(C)/C(S)=N/c1cc(C)c(Oc2ccc(Cl)c(C(C)C)c2)cc1C [Example 29] |  | 4.81 | ≥ 70 | pest or weed control at 100 ppm (Sphaerotheca fuliginea): ≥ 70%; pest or weed control at 100 ppm (Podosphaera leucotricha): ≥ 70% |
| Cc1cc(Oc2ccc(Br)c(C(C)C)c2)c(Cl)cc1/N=C/N(C)C1CC1 [Example 31] | 3.98 |  |  |  |
| Cc1cc(Oc2ccc(Br)c(C(C)C)c2)c(Cl)cc1/N=C/N(C)C(C)C [Example 33] |  | 3.21 |  |  |
| CCCN(C)/C=N/c1cc(Cl)c(Oc2ccc(Br)c(C(C)C)c2)cc1C [Example 34] |  | 2.91 | ≥ 70 | pest or weed control at 100 ppm (Sphaerotheca fuliginea): ≥ 70%; pest or weed control at 1000 ppm [2]: ≥ 70%; pest or weed control at 100 ppm (Podosphaera leucotricha): ≥ 70% |
| CCN(C)/C(S)=N/c1cc(C)c(Oc2ccc(Cl)c(C(C)(C)C)c2)cc1C [Example 35] | 5.44 |  | ≥ 70 |  |
| Cc1cc(Oc2ccc(Cl)c(C(C)(C)C)c2)c(Cl)cc1/N=C/N1CCCCC1 [Example 36] | 3.11 |  |  |  |
| CCc1cc(Oc2cc(C)c(/N=C/N3CCCCC3)cc2Cl)ccc1Cl [Example 37] | 2.74 |  |  |  |
| CCN(C)/C=N/c1cc(C#N)c(Oc2ccc(Cl)c(C(C)C)c2)cc1C [Example 38] |  | 2.45 | ≥ 70 | pest or weed control at 1000 ppm [2]: ≥ 70% |

| Structure (SMILES) | logPa [1] | chromatographic logP [1] | pest or weed control at 1000 ppm [3] [%] | also measured |
| --- | --- | --- | --- | --- |
| Cc1cc(/N=C/N(C)C(C)C)c(Cl)cc1Oc1ccc(Cl)c(C(C)(C)C)c1 [Example 39] |  | 3.01 | ≥ 70 | pest or weed control at 100 ppm (Sphaerotheca fuliginea): ≥ 70%; pest or weed control at 1000 ppm [2]: ≥ 70% |
| CCC(C)N(C)/C=N/c1cc(C)c(Oc2ccc(Cl)c(C(C)(C)C)c2)cc1C (stereo not drawn) [Example 40] |  | 3.2 | ≥ 70 | pest or weed control at 100 ppm (Sphaerotheca fuliginea): ≥ 70% |
| CCC(C)N(C)/C=N/c1cc(C)c(Oc2ccc(Cl)c(C(C)C)c2)cc1C (stereo not drawn) [Example 41] |  | 2.98 | ≥ 70 | pest or weed control at 100 ppm (Sphaerotheca fuliginea): ≥ 70% |
| CCC(C)N(C)/C=N/c1cc(Cl)c(Oc2ccc(Cl)c(C(C)C)c2)cc1C (stereo not drawn) [Example 42] |  | 2.9 | ≥ 70 |  |
| CCC(C)N(C)/C=N/c1cc(Cl)c(Oc2ccc(Cl)c(C(C)(C)C)c2)cc1C (stereo not drawn) [Example 43] |  | 3.19 |  |  |
| Cc1cc(Oc2cc(C)c(/N=C/N(C)C(C)C)cc2C)ccc1F [Example 44] |  | 2.29 | ≥ 70 | pest or weed control at 100 ppm (Sphaerotheca fuliginea): ≥ 70% |
| Cc1cc(Oc2ccc(Cl)c(C(C)(C)C)c2)c(C)cc1/N=C/N1CCCCC1 [Example 45] | 3.02 |  |  |  |
| CCN(C)/C=N/c1cc(C)c(Oc2ccc(Cl)c(CC(C)(C)C)c2)cc1C [Example 46] | 3.11 |  |  |  |
| CCN(C)/C=N/c1cc(C)c(Oc2ccc(Cl)c(C[Si](C)(C)C)c2)cc1C [Example 47] | 3.01 |  |  |  |
| CCN(C)/C=N/c1cc(C)c(Oc2ccc(Cl)c(C3CCCCC3)c2)cc1C [Example 48] | 3.18 |  |  |  |
| CCN(C)/C=N/c1cc(C)c(Oc2ccc(Cl)c(C)c2)cc1Cl [Example 49] |  | 2.39 |  |  |
| Cc1cc(Oc2cc(Cl)c(/N=C/N(C)C(C)C)cc2C)ccc1Cl [Example 50] |  | 2.48 |  |  |
| Cc1cc(Oc2cc(Cl)c(/N=C/N3CCCCC3)cc2C)ccc1Cl [Example 51] | 2.58 |  |  |  |
| Cc1cc(/N=C/N2CCCCC2)c(Cl)cc1Oc1ccc(Cl)c(C(C)(C)C)c1 [Example 53] | 3.25 |  |  |  |
| CCCCc1cc(Oc2cc(C)c(/N=C/N(C)CC)cc2C)ccc1Cl [Example 55] |  | 2.95 | ≥ 70 |  |
| CCN(C)/C=N/c1cc(C)c(Oc2ccc(Cl)c(CC(C)C)c2)cc1C [Example 56] |  | 2.92 | ≥ 70 |  |
| CCN(C)/C=N/c1cc(C)c(Oc2ccc(Cl)c(C(C)(C)OC)c2)cc1C [Example 57] | 2.26 |  |  |  |
| CCN(C)/C=N/c1cc(C)c(Oc2ccc(Cl)c(C(C)C)c2)cc1Cl [Example 60] |  | 2.78 |  |  |
| Cc1cc(Oc2ccc(Cl)c(C(C)(C)C)c2)c(C)cc1/N=C/N1CCC(F)(F)CC1 [Example 61] | 3.25 |  |  |  |
| CCN(C)/C=N/c1cc(Br)c(Oc2ccc(Cl)c(C(C)(C)C)c2)cc1C [Example 63] |  | 2.67 |  |  |
| CCN(C)/C=N/c1cc(C)c(Oc2ccc(Cl)c(C3CCCC3)c2)cc1C [Example 64] | 3.28 |  |  |  |
| Cc1cc(Oc2ccc(Cl)c(CC(C)(C)C)c2)c(C)cc1/N=C/N1CCCCC1 [Example 65] | 3.19 |  |  |  |
